Source: ChEMBL document CHEMBL3576861, “Methyl 3-((6-methoxy-1,4-dihydroindeno[1,2-c]pyrazol-3-yl)amino)benzoate (GN39482) as a tubulin polymerization inhibitor identified by MorphoBase and ChemProteoBase profiling methods” (J Med Chem, 2015)
Activity calls are given as the source filed them. No cut-off for these calls is given here.

Tests used:
Tubulin (Homo sapiens) [1] = biological target: T1, Tubulin (Homo sapiens) (UniProt P68371+Q9H4B7+P0DPH7+P68366+Q13509+Q71U36+P04350+Q3ZCM7+P07437+P68363+Q9BQE3+Q6PEY2+Q13885+Q9BVA1+Q9BUF5); assay: Inhibition of tubulin polymerization in human HeLa cells assessed as reduction of microtubule formation at 100 nM after 6 hrs by DAPI staining-based immunofluorescence assay; type: cell-based
HeLa [2] = assay: Antiproliferative activity against human HeLa cells assessed as inhibition of cell viability after 72 hrs by MTT assay; type: functional, cell-based
PC-3 = assay: Antiproliferative activity against human PC3 cells assessed as inhibition of cell viability after 72 hrs by MTT assay; type: functional, cell-based; conditions: PC-3, 72 h
HCT-116 = assay: Antiproliferative activity against human HCT116 cells assessed as inhibition of cell viability after 72 hrs by MTT assay; type: functional, cell-based; conditions: HCT-116, 72 h
HEK293 = assay: Antiproliferative activity against HEK293 cells assessed as inhibition of cell viability after 72 hrs by MTT assay; type: cell-based; conditions: Homo sapiens, HEK293, 72 h
Tubulin (Homo sapiens) [3] = biological target: T1, Tubulin (Homo sapiens); assay: Inhibition of acetylated tubulin accumulation in human HeLa cells at 1000 nM after 6 hrs by Western blot analysis; type: cell-based
Tubulin (Homo sapiens) [4] = biological target: T1, Tubulin (Homo sapiens); assay: Inhibition of tubulin polymerization in human HeLa cells assessed as reduction of microtubule formation at 1000 nM after 6 hrs by DAPI staining-based immunofluorescence assay; type: cell-based
Tubulin (Homo sapiens) [5] = biological target: T1, Tubulin (Homo sapiens); assay: Inhibition of acetylated tubulin accumulation in human HeLa cells at 300 nM after 6 hrs by Western blot analysis; type: cell-based
Tubulin (Homo sapiens) [6] = biological target: T1, Tubulin (Homo sapiens); assay: Inhibition of tubulin polymerization in human HeLa cells assessed as reduction of microtubule formation at 300 nM after 6 hrs by DAPI staining-based immunofluorescence assay; type: cell-based
Staphylococcus aureus = assay: Antimicrobial activity against Staphylococcus aureus 209 at 100 nM after 24 hrs by standard microdilution method; type: functional, organism-based
Escherichia coli = assay: Antimicrobial activity against Escherichia coli HO141 at 100 nM after 24 hrs by standard microdilution method; type: functional, organism-based
Candida albicans = assay: Antimicrobial activity against Candida albicans JCM1542 at 100 nM after 24 hrs by standard microdilution method; type: functional, organism-based
Aspergillus fumigatus = assay: Antimicrobial activity against Aspergillus fumigatus Af293 at 100 nM after 48 hrs by standard microdilution method; type: functional
Pyricularia oryzae = assay: Antimicrobial activity against Magnaporthe oryzae Kita-1 at 100 nM after 48 hrs by standard microdilution method; type: functional, organism-based
Plasmodium falciparum = assay: Antimalarial activity against Plasmodium falciparum 3D7 infected in human erythrocytes assessed as LDH activity at 100 nM after 72 hrs by plate reader analysis; type: functional, organism-based
[7] = biological target: Vascular endothelial growth factor receptor 2 (Homo sapiens) (UniProt P35968); assay: Inhibition of N-terminal GST fusion protein human KDR cytoplasmic domain expressed in baculovirus using CSKtide as substrate at 10 uM after 1 hr by off-chip Mobility Shift Assay
Chain of Vascular endothelial growth factor receptor 2 (Homo sapiens) (P35968 whole entry, the tested form may be a part): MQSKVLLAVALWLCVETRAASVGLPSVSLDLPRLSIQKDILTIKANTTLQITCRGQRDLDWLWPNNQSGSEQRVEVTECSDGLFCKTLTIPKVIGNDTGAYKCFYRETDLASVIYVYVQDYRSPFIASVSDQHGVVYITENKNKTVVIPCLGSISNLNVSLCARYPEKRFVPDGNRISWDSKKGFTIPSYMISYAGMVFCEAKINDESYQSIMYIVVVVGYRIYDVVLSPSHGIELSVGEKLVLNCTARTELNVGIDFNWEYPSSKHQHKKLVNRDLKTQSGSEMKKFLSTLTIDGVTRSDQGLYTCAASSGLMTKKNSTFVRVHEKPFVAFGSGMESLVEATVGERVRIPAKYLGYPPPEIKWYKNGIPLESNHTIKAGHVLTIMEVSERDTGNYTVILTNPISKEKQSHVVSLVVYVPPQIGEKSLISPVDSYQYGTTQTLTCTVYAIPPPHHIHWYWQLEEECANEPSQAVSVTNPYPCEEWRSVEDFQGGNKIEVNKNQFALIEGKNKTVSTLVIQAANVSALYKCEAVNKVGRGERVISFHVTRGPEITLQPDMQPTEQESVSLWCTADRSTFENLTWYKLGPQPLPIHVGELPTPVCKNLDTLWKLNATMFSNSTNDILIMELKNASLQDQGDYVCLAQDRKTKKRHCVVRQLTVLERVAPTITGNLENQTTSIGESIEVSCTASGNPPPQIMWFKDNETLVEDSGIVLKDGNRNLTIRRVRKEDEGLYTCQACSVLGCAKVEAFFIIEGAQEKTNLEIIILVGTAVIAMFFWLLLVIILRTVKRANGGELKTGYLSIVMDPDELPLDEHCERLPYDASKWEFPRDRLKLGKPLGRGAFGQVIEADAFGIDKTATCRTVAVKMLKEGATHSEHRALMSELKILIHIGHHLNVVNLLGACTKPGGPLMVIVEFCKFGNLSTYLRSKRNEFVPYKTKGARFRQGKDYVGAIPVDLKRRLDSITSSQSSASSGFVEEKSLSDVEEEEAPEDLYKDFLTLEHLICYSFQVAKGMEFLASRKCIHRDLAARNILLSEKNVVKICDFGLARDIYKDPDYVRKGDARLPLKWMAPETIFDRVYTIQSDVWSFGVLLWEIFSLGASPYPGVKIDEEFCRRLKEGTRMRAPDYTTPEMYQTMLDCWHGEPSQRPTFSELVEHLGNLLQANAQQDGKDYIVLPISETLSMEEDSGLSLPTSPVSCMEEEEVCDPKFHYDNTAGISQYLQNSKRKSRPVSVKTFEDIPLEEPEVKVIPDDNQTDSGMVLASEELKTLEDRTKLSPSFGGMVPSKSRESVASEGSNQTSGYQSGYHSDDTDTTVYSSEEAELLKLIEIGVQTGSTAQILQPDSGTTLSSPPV

[8] = biological target: Platelet-derived growth factor receptor beta (Homo sapiens) (UniProt P09619); assay: Inhibition of N-terminal GST fusion protein human PDGFR-beta cytoplasmic domain expressed in baculovirus using CSKtide as substrate at 10 uM after 1 hr by off-chip Mobility Shift Assay
Chain of Platelet-derived growth factor receptor beta (Homo sapiens) (P09619 whole entry, the tested form may be a part): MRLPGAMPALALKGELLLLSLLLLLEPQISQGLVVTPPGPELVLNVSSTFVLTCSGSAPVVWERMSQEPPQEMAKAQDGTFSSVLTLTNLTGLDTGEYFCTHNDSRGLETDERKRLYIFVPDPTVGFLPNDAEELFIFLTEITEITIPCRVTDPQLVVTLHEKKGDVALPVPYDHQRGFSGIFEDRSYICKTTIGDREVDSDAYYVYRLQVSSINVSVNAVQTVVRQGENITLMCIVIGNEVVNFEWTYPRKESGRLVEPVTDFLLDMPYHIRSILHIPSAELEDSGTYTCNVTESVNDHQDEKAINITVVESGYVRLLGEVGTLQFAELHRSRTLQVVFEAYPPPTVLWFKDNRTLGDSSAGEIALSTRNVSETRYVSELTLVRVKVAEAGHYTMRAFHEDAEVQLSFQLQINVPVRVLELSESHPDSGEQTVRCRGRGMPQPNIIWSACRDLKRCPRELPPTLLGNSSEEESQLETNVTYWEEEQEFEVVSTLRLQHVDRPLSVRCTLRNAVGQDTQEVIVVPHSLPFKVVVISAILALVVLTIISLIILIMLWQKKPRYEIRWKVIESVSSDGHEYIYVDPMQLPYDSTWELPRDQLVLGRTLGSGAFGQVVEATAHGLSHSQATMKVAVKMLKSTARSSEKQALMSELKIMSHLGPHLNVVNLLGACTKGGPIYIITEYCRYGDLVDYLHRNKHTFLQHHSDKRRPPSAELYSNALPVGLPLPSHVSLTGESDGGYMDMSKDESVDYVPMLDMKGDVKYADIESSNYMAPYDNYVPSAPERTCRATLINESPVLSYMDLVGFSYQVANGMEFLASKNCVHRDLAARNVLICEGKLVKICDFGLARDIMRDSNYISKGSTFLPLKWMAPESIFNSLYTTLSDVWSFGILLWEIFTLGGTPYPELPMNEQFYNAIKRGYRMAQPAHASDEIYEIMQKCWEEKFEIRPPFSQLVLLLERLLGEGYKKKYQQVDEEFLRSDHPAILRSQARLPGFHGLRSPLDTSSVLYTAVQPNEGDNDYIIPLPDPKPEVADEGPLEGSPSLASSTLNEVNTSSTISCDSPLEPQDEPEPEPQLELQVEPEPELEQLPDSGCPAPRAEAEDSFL

[9] = biological target: T2, Cyclin-dependent kinase 2/cyclin E1 (Homo sapiens) (UniProt P24864+P24941); assay: Inhibition of N-terminal GST-tagged human full length CDK2/Cyclin E1 expressed in baculovirus using histone H1 as substrate at 10 uM after 1 hr by off-chip Mobility Shift Assay
[10] = biological target: Epidermal growth factor receptor (Homo sapiens) (UniProt P00533); assay: Inhibition of N-terminal GST fusion protein human EGFR cytoplasmic domain expressed in baculovirus using Srctide as substrate at 0.1 uM after 1 hr by off-chip Mobility Shift Assay
Chain of Epidermal growth factor receptor (Homo sapiens) (P00533 whole entry, the tested form may be a part): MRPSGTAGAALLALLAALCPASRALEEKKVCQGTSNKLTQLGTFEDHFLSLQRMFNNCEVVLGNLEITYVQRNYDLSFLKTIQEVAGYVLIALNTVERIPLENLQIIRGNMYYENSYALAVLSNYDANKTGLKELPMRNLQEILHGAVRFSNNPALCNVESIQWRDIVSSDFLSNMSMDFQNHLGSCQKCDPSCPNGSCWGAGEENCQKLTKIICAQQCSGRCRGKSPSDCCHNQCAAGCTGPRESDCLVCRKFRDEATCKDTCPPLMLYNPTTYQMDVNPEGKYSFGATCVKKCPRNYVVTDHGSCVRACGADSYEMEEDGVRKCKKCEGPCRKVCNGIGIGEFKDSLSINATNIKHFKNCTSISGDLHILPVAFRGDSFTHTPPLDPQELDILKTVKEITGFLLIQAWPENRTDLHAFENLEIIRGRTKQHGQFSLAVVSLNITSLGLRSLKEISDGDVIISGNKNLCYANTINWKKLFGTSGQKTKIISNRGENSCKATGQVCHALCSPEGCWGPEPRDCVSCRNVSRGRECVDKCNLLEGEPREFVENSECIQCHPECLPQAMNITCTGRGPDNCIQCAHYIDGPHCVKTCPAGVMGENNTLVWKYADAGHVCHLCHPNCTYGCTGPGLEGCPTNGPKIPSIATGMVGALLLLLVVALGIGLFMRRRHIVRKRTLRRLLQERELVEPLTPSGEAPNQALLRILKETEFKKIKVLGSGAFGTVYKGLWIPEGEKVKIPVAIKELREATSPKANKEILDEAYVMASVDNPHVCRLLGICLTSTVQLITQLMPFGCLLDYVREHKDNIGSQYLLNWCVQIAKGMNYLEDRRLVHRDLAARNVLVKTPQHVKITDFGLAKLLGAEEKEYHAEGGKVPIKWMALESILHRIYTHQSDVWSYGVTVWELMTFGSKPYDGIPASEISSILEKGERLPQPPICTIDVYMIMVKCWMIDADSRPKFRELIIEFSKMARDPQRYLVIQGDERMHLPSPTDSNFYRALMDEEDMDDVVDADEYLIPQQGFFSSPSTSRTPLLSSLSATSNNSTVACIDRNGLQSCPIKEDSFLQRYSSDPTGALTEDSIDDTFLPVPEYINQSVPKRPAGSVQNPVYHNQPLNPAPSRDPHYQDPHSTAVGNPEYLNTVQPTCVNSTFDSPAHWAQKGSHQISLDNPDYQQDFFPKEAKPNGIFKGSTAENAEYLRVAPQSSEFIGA

[11] = biological target: Vascular endothelial growth factor receptor 2 (Homo sapiens) (UniProt P35968); assay: Inhibition of N-terminal GST fusion protein human KDR cytoplasmic domain expressed in baculovirus using CSKtide as substrate at 0.1 uM after 1 hr by off-chip Mobility Shift Assay
[12] = biological target: Platelet-derived growth factor receptor beta (Homo sapiens) (UniProt P09619); assay: Inhibition of N-terminal GST fusion protein human PDGFR-beta cytoplasmic domain expressed in baculovirus using CSKtide as substrate at 0.1 uM after 1 hr by off-chip Mobility Shift Assay
[13] = biological target: T2, Cyclin-dependent kinase 2/cyclin E1 (Homo sapiens); assay: Inhibition of N-terminal GST-tagged human full length CDK2/Cyclin E1 expressed in baculovirus using histone H1 as substrate at 0.1 uM after 1 hr by off-chip Mobility Shift Assay
[14] = biological target: CDK4/Cyclin D3 (Homo sapiens) (UniProt P11802+P30281); assay: Inhibition of human full length N-terminal GST-fusion protein CDK4/GST-tagged Cyclin D3 expressed in baculovirus using DYRKtide-F as substrate at 0.1 uM after 1 hr by off-chip Mobility Shift Assay
[15] = biological target: T3, Serine/threonine-protein kinase Chk1 (Homo sapiens) (UniProt O14757); assay: Inhibition of human full length N-terminal GST fusion protein CHK1 expressed in baculovirus using CHKtide as substrate at 0.1 uM after 1 hr by off-chip Mobility Shift Assay
T3 sequence (whole entry): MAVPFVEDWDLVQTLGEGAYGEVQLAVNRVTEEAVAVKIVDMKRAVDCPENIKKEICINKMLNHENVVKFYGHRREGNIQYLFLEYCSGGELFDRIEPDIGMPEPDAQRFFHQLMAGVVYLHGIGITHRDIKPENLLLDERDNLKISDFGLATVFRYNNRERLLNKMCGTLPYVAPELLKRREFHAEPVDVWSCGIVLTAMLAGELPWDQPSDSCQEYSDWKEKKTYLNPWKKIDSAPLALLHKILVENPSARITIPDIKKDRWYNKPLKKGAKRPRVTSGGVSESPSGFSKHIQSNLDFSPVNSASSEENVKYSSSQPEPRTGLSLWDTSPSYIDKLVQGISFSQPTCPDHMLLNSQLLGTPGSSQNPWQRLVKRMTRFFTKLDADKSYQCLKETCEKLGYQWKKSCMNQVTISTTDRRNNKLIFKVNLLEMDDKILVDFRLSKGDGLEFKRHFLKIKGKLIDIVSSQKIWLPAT

Tubulin (Sus scrofa) = Tubulin (Sus scrofa) (UniProt P02554+P02550); assay: Inhibition of porcine tubulin polymerization measured every min for 1 hr by fluorescence analysis; type: protein assay
Chain of Tubulin (Sus scrofa) (P02550 whole entry, looked up): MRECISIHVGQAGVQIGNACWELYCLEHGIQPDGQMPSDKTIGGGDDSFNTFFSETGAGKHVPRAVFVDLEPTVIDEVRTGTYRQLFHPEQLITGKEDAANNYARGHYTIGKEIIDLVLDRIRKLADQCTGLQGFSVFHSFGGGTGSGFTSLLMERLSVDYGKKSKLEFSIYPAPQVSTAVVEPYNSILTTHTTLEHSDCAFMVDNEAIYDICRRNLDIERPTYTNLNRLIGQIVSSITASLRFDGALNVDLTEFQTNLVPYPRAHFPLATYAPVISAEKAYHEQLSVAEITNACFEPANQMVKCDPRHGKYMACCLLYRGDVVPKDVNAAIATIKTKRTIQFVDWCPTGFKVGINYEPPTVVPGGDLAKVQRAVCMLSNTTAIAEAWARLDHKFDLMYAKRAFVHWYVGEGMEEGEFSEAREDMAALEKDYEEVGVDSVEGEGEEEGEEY
Chain of Tubulin (Sus scrofa) (P02554 whole entry, looked up): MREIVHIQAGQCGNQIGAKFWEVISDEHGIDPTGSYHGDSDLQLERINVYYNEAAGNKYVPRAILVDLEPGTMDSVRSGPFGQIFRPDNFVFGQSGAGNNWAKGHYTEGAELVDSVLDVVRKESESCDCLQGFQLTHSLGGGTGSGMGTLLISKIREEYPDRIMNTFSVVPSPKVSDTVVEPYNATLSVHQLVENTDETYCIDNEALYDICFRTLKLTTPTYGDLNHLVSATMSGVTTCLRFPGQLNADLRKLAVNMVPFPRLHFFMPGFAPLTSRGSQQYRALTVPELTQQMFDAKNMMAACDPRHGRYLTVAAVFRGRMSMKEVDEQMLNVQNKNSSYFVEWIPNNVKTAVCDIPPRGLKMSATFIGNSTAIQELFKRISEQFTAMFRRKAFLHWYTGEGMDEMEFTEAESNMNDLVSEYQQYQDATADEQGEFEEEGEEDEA

HeLa [16] = assay: Cell cycle arrest in human HeLa cells assessed as accumulation at G2/M phase at 0.3 to 30 nM after 24 hrs by propidium iodide staining based flow cytometry; type: functional
Tubulin (Homo sapiens) [17] = biological target: T1, Tubulin (Homo sapiens); assay: Inhibition of acetylated tubulin accumulation in human HeLa cells at 1 to 100 nM after 6 hrs by Western blot analysis; type: cell-based
Tubulin (Homo sapiens) [18] = biological target: T1, Tubulin (Homo sapiens); assay: Inhibition of tubulin polymerization in human HeLa cells assessed as reduction of microtubule formation at 30 nM after 6 hrs by DAPI staining-based immunofluorescence assay; type: cell-based
HeLa [19] = assay: Cell cycle arrest in human HeLa cells assessed as accumulation at G2/M phase at 100 nM after 24 hrs by propidium iodide staining based flow cytometry; type: functional
HeLa [20] = assay: Cell cycle arrest in human HeLa cells assessed as accumulation at G2/M phase at 3 to 30 uM after 24 hrs by propidium iodide staining based flow cytometry; type: functional

SMILES	IC50 (HeLa [2]) [µM]	IC50 (PC-3) [µM]	IC50 (HCT-116) [µM]	IC50 (HEK293) [µM]	further results
CC(=O)O[C@H]1C(=O)[C@@]2(C)[C@H]([C@H](OC(=O)c3ccccc3)[C@]3(O)C[C@H](OC(=O)[C@H](O)[C@@H](NC(=O)c4ccccc4)c4ccccc4)C(C)=C1C3(C)C)[C@]1(OC(C)=O)CO[C@@H]1C[C@@H]2O					inhibition (Tubulin (Homo sapiens) [1]): inactive
COc1ccc2c(c1)Cc1c-2n[nH]c1Nc1ccccc1	0.0089	0.0356	0.0266	0.0536	inhibition (Tubulin (Homo sapiens) [3]): inactive; inhibition (Tubulin (Homo sapiens) [4]): inactive
COc1ccc(Nc2n[nH]c3c2Cc2cc(OC)ccc2-3)cc1	> 0.1	> 0.1	> 0.1	> 0.1	
COc1ccc2c(c1)Cc1c(Nc3ccccc3O)n[nH]c1-2	> 0.1	> 0.1	> 0.1	> 0.1	
COc1ccc2c(c1)Cc1c(Nc3ccccc3OC)n[nH]c1-2	0.032	> 0.1	0.0862	> 0.1	
COc1ccc2c(c1)Cc1c(Nc3ccc(OC)c(OC)c3)n[nH]c1-2	> 0.1	0.0909	0.0863	> 0.1	
COc1ccc2c(c1)Cc1c(Nc3cccc(OCC(C)C)c3)n[nH]c1-2	0.0199	0.0505	0.0566	0.0255	inhibition (Tubulin (Homo sapiens) [5]): Active; inhibition (Tubulin (Homo sapiens) [6]): Active
COc1cccc(Nc2n[nH]c3c2Cc2ccccc2-3)c1	> 0.1	> 0.1	> 0.1	> 0.1	inhibition (Tubulin (Homo sapiens) [3]): inactive
COc1cc(Nc2n[nH]c3c2Cc2cc(OC)ccc2-3)cc(OC)c1	0.0032	0.007	0.0074	0.0046	
COC(=O)c1cccc(Nc2n[nH]c3c2Cc2cc(OC)ccc2-3)c1	0.00247	0.00264	0.0027	0.0022	Activity (Staphylococcus aureus): inactive; Activity (Escherichia coli): inactive; Activity (Candida albicans): inactive; Activity (Aspergillus fumigatus): inactive; Activity (Pyricularia oryzae): inactive; Activity (Plasmodium falciparum): inactive; inhibition [7]: > 82%; inhibition [8]: > 82%; inhibition [9]: > 82%; inhibition [10]: inactive; inhibition [11]: inactive; inhibition [12]: inactive; inhibition [13]: inactive; inhibition [14]: inactive; inhibition [15]: inactive; inhibition (Tubulin (Sus scrofa)): Dose-dependent effect; Activity (HeLa [16]): Active; inhibition (Tubulin (Homo sapiens) [17]): Active; inhibition (Tubulin (Homo sapiens) [18]): Active
COc1cc2c(c(OC)c1OC)-c1ccc(OC)c(=O)cc1[C@@H](NC(C)=O)CC2					Activity (HeLa [19]): Active
c1ccc(Nc2n[nH]c3c2Cc2ccccc2-3)cc1	> 0.1	> 0.1	> 0.1	> 0.1	Activity (HeLa [16]): inactive; Activity (HeLa [20]): inactive
COc1cccc(Nc2n[nH]c3c2Cc2cc(OC)ccc2-3)c1	0.0028	0.0047	0.00653	0.0088	
CCOc1ccc2c(c1)Cc1c(Nc3ccccc3)n[nH]c1-2	0.0204	0.0602	0.0568	0.0556	
Oc1ccc2c(c1)Cc1c(Nc3ccccc3)n[nH]c1-2	> 0.1	> 0.1	> 0.1	> 0.1	
COc1ccc2c(c1)Cc1c(Nc3cccc(O)c3)n[nH]c1-2	0.0071	0.0086	0.0109	> 0.1	
COc1ccc2c(c1)Cc1c(Nc3cccc(C(=O)O)c3)n[nH]c1-2	> 0.1	> 0.1	> 0.1	> 0.1	
